Experimental data: ChEMBL document CHEMBL4359843, “Linear and Rationally Designed Stapled Peptides Abrogate TLR4 Pathway and Relieve Inflammatory Symptoms in Rheumatoid Arthritis Rat Model” (J Med Chem, 2019)
Active and inactive are the calls of the source. The rule behind the calls is not given here.

How the values were obtained:
Toll-like receptor 4 = Toll-like receptor 4 (Homo sapiens, UniProt O00206); assay: Binding affinity to recombinant human TLR4 using phage displayed compound by Phage-ELISA
Toll-like receptor 4, sequence (O00206 whole entry): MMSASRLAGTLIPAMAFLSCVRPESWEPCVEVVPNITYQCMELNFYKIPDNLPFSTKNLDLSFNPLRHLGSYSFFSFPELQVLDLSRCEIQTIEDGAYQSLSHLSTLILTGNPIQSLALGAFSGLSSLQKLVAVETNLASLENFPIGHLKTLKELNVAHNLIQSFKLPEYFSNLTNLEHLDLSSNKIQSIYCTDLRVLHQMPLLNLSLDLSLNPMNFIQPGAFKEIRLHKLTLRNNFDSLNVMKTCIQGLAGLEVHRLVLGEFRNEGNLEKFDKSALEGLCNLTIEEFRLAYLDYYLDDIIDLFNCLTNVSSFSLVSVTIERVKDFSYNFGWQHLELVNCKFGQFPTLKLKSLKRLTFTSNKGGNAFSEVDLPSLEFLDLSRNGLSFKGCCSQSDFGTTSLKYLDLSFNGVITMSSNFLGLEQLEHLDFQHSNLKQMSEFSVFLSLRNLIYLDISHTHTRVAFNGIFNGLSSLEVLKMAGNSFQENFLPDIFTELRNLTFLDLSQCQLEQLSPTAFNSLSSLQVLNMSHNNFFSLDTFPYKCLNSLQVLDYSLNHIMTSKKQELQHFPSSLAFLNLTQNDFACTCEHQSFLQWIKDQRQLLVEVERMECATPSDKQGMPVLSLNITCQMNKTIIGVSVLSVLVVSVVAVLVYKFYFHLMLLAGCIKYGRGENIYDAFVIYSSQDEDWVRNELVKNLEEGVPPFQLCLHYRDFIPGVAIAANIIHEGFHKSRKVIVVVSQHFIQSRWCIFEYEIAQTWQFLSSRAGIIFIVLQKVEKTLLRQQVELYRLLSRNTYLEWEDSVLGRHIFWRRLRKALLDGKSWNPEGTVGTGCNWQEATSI

RAW264.7 [1] = assay: Cytotoxicity against mouse RAW264.7 cells assessed as reduction in cell viability at 100 uM after 24 hrs by MTT assay; assay type: cell-based; conditions: raw264.7, 24 h
RAW264.7 [2] = assay: Cytotoxicity against mouse RAW264.7 cells assessed as reduction in cell viability at 20 to 80 uM after 24 hrs by MTT assay; assay type: cell-based; conditions: raw264.7, 24 h

Activity (Toll-like receptor 4)	Substance	Activity (RAW264.7 [1])	Activity (RAW264.7 [2])
Active	H-FGRYFPCLNWLG-OH	Toxic	Non-Toxic
Active	H-FWIFSRYPGASA-OH	Toxic	Non-Toxic
Active	H-HWWHFHSLRWLG-OH	Toxic	Non-Toxic
Active	H-LWWCFHSLRWLG-OH	Toxic	Non-Toxic
